In this data set the test system is L929 cells. It is filed as cell-based. The method, then: A direct overlay method which has been adopted by the FDA for MPS registration was used to evaluate the cytotoxicity profile of the PQ1 formulations. In this method, previously-soaked contact lenses (in 100 ml of the solutions to simulate overnight soak) were directly overlayed on L929 cells. The cytotoxicity result was evaluated by scoring each culture under a microscope on a relative scale of 0-4.

For 1 substance, cytotoxicity score results are on record in US7999064B2 (Abbott Medical Optics Inc., priority 2009, dated 2011).

For the substance Polyquaternium-1 [30K PQ1], the cytotoxicity score is 2.
